Test results published in ChEMBL document CHEMBL5678816, “A Next-Generation TRK Kinase Inhibitor Overcomes Acquired Resistance to Prior TRK Kinase Inhibition in Patients with TRK Fusion-Positive Solid Tumors” (Cancer Discov, 2017).
The source made the active and inactive calls. The rule behind the calls is not given here.

Tests used:
[1] = Inhibition of human extracellular domain deleted TRKA V573M mutant expressed in mouse NIH3T3 cells assessed as reduction in TRKA phosphorylation incubated for 1 hrs by ELISA; format: cell-based; settings: NIH3T3, 1 h
[2] = test system: LC2; experiment: Inhibition of cell proliferation in human LC2 cells upto 10 umol/L incubated for 72 hrs by DAPI staining based analysis; format: functional; settings: dose <= 10.0 µmol/L
[3] = test system: MDA-MB-231; experiment: Inhibition of cell proliferation in human MDA-MB-231 cells upto 10 umol/L incubated for 72 hrs by DAPI staining based analysis; format: functional; settings: dose <= 10.0 µmol/L
[4] = test system: DK-MG; experiment: Inhibition of cell proliferation in human DK-MG cells upto 10 umol/L incubated for 72 hrs by DAPI staining based analysis; format: functional; settings: dose <= 10.0 µmol/L
[5] = test system: MZ-CRC-1; experiment: Inhibition of cell proliferation in human MZ-CRC-1 cells upto 10 umol/L incubated for 72 hrs by DAPI staining based analysis; format: functional; settings: dose <= 10.0 µmol/L
[6] = test system: SU-DHL10; experiment: Inhibition of cell proliferation in human SU-DHL-10 cells upto 10 umol/L incubated for 72 hrs by DAPI staining based analysis; format: functional; settings: dose <= 10.0 µmol/L
[7] = test system: HMCB cell line; experiment: Inhibition of cell proliferation in human HMCB cells upto 10 umol/L incubated for 72 hrs by DAPI staining based analysis; format: functional; settings: dose <= 10.0 µmol/L
[8] = test system: BT-549; experiment: Inhibition of cell proliferation in human BT-549 cells upto 10 umol/L incubated for 72 hrs by DAPI staining based analysis; format: functional; settings: dose <= 10.0 µmol/L
[9] = test system: HT-1376; experiment: Inhibition of cell proliferation in human HT-1376 cells upto 10 umol/L incubated for 72 hrs by DAPI staining based analysis; format: functional; settings: dose <= 10.0 µmol/L
[10] = test system: TCC-SUP; experiment: Inhibition of cell proliferation in human TCC-SUP cells upto 10 umol/L incubated for 72 hrs by DAPI staining based analysis; format: functional; settings: dose <= 10.0 µmol/L
[11] = test system: TPC1; experiment: Inhibition of cell proliferation in human TPC1 cells upto 10 umol/L incubated for 72 hrs by DAPI staining based analysis; format: functional; settings: dose <= 10.0 µmol/L
[12] = test system: Caov-3 cell line; experiment: Inhibition of cell proliferation in human Caov-3 cells upto 10 umol/L incubated for 72 hrs by DAPI staining based analysis; format: functional; settings: dose <= 10.0 µmol/L
[13] = test system: KATO III stomach cancer cell line; experiment: Inhibition of cell proliferation in human KATO III stomach cancer cell line upto 10 umol/L incubated for 72 hrs by DAPI staining based analysis; format: functional; settings: dose <= 10.0 µmol/L
[14] = test system: KPL-1; experiment: Inhibition of cell proliferation in human KPL-1 cells upto 10 umol/L incubated for 72 hrs by DAPI staining based analysis; format: functional; settings: dose <= 10.0 µmol/L
[15] = Cmax in pediatric patient with recurrent ETV6-NTRK3-rearranged infantile fibrosarcoma at 60 mg administered twice a day as liquid formulation for 8 day by LC-MS/MS analysis; format: ADME; settings: human, in vivo
[16] = AUC in adult patient with recurrent LMNA-NTRK1 rearranged colorectal cancer at 100 mg administered twice a day as powder-in-capsule or liquid formulation for 15 day by LC-MS/MS analysis; format: ADME; settings: human, in vivo, po
[17] = biological target: Tyrosine-protein kinase Lck (Homo sapiens) (UniProt P06239); experiment: Inhibition of Lck (unknown origin) at 1 uM in presence of ATP relative to control; values are per cent of control
[18] = biological target: G protein-coupled receptor kinase 5 (Homo sapiens) (UniProt P34947); experiment: Inhibition of GRK5 (unknown origin) at 1 uM in presence of ATP relative to control; values are per cent of control
[19] = biological target: Serine/threonine-protein kinase PLK2 (Homo sapiens) (UniProt Q9NYY3); experiment: Inhibition of Plk2 (unknown origin) at 1 uM in presence of ATP relative to control; values are per cent of control
[20] = biological target: Serine/threonine-protein kinase PLK3 (Homo sapiens) (UniProt Q9H4B4); experiment: Inhibition of Plk3 (unknown origin) at 1 uM in presence of ATP relative to control; values are per cent of control
[21] = biological target: Serine/threonine-protein kinase PAK 5 (Homo sapiens) (UniProt Q9P286); experiment: Inhibition of PAK5 (unknown origin) at 1 uM in presence of ATP relative to control; values are per cent of control
[22] = biological target: Protein-tyrosine kinase 2-beta (Homo sapiens) (UniProt Q14289); experiment: Inhibition of FAK2 (unknown origin) at 1 uM in presence of ATP relative to control; values are per cent of control
[23] = biological target: Serine/threonine-protein kinase BRSK2 (Homo sapiens) (UniProt Q8IWQ3); experiment: Inhibition of BrSK2 (unknown origin) at 1 uM in presence of ATP relative to control; values are per cent of control
[24] = biological target: Serine/threonine-protein kinase pim-2 (Homo sapiens) (UniProt Q9P1W9); experiment: Inhibition of Pim-2 (unknown origin) at 1 uM in presence of ATP relative to control; values are per cent of control
[25] = biological target: Fibroblast growth factor receptor 2 (Homo sapiens) (UniProt P21802); experiment: Inhibition of FGFR2 (unknown origin) at 1 uM in presence of ATP relative to control; values are per cent of control
[26] = biological target: LIM domain kinase 1 (Homo sapiens) (UniProt P53667); experiment: Inhibition of LIMK1 (unknown origin) at 1 uM in presence of ATP relative to control; values are per cent of control
[27] = biological target: Mitogen-activated protein kinase kinase kinase 5 (Homo sapiens) (UniProt Q99683); experiment: Inhibition of MAP3K5 (unknown origin) at 1 uM in presence of ATP relative to control; values are per cent of control
[28] = biological target: Cyclin-dependent kinase 1/cyclin B1 (Homo sapiens) (UniProt P06493+P14635); experiment: Inhibition of CDK1/cyclinB (unknown origin) at 1 uM in presence of ATP relative to control; values are per cent of control
[29] = biological target: CDK6/cyclin D3 (Homo sapiens) (UniProt P30281+Q00534); experiment: Inhibition of CDK6/cyclinD3 (unknown origin) at 1 uM in presence of ATP relative to control; values are per cent of control
[30] = biological target: CDK9/cyclin T1 (Homo sapiens) (UniProt O60563+P50750); experiment: Inhibition of CDK9/cyclinT1 (unknown origin) at 1 uM in presence of ATP relative to control; values are per cent of control
[31] = biological target: Insulin-like growth factor 1 receptor (Homo sapiens) (UniProt P08069); experiment: Inhibition of Activated IGF-1R (unknown origin) at 1 uM in presence of ATP relative to control; values are per cent of control

Sequence of Tyrosine-protein kinase Lck (Homo sapiens) (P06239 2-509 limits assumed): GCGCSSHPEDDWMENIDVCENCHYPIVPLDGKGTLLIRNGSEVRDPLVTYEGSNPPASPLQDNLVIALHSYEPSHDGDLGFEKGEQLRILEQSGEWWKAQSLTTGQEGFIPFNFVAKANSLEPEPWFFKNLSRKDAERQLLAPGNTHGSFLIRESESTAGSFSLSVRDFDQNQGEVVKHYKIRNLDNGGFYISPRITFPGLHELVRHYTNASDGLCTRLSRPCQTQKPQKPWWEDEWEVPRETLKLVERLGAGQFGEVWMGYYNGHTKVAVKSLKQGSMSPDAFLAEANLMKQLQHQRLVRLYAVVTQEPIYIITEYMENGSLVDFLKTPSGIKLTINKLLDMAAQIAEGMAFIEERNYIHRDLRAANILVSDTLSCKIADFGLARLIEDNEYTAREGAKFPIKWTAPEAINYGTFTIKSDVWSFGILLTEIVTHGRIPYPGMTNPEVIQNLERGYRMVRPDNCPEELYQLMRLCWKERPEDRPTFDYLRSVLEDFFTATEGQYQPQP
Sequence of Cyclin-dependent kinase 1/cyclin B1 (Homo sapiens) (P06493 whole entry, looked up): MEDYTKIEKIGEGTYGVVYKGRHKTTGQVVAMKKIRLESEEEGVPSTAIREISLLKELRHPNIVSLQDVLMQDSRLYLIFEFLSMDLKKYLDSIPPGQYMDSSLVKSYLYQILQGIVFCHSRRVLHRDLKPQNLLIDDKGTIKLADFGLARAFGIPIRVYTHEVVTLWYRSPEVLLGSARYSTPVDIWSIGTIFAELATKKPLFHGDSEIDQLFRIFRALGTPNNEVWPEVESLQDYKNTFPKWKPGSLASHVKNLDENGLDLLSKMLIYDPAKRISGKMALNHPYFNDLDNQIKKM
Sequence of Cyclin-dependent kinase 1/cyclin B1 (Homo sapiens) (P14635 whole entry, looked up): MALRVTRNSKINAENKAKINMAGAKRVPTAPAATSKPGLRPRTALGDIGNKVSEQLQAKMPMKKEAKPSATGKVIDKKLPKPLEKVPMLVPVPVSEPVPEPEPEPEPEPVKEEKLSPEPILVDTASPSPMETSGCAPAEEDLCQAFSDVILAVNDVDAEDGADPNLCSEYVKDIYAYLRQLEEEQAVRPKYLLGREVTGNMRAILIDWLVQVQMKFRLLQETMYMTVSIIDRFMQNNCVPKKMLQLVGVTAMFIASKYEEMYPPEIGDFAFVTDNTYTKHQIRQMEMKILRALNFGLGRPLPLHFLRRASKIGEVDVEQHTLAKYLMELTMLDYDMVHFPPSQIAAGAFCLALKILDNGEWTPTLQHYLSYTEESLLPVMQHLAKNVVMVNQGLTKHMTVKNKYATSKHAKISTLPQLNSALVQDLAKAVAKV
Sequence of LIM domain kinase 1 (Homo sapiens) (P53667 whole entry, looked up, the tested form may be a part): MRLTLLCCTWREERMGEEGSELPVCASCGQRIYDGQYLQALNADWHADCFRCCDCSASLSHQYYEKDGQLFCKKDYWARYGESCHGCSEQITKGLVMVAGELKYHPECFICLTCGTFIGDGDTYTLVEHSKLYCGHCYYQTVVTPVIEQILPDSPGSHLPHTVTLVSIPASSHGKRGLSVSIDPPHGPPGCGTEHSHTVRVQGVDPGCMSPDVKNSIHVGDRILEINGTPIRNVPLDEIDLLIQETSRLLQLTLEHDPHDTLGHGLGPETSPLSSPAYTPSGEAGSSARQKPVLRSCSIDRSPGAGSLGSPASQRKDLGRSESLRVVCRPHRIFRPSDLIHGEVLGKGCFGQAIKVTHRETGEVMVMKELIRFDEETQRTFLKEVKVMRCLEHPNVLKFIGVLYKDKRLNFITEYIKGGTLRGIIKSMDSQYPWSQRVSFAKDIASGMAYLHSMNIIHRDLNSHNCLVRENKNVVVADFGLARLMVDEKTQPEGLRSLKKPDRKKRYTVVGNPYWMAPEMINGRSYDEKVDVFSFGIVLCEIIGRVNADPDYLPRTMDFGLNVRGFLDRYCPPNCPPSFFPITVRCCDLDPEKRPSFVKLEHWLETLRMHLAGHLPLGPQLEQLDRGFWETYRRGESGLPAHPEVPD
Sequence of Serine/threonine-protein kinase pim-2 (Homo sapiens) (Q9P1W9 whole entry, looked up): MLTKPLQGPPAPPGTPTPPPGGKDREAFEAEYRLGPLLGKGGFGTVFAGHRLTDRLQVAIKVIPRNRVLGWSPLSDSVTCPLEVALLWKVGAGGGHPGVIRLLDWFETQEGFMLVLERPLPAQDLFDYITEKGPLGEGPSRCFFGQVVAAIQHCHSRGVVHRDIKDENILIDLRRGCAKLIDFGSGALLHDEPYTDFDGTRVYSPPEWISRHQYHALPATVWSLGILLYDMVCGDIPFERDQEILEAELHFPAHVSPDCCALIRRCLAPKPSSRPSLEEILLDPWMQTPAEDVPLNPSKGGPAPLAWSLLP
Sequence of Fibroblast growth factor receptor 2 (Homo sapiens) (P21802 22-821 limits assumed): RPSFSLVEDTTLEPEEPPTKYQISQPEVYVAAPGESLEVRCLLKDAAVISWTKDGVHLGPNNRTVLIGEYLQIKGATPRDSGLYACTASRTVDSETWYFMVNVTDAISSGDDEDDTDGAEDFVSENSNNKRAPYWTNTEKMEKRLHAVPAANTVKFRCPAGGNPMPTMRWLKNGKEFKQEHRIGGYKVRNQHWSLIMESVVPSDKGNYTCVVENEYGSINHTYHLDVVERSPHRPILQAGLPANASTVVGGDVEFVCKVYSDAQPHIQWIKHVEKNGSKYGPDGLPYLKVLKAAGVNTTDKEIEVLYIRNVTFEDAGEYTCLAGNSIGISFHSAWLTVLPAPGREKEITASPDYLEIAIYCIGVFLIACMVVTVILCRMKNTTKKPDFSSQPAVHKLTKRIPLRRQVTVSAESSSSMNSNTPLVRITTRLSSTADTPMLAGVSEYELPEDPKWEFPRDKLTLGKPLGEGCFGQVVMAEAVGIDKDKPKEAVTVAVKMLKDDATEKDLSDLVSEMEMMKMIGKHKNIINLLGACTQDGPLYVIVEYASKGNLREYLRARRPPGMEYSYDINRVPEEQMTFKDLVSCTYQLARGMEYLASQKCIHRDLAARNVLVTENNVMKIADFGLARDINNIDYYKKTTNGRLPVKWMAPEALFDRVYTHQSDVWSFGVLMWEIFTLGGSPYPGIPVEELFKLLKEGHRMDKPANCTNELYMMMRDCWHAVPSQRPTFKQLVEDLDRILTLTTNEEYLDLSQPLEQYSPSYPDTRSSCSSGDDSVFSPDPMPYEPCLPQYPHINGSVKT
Sequence of Serine/threonine-protein kinase PLK3 (Homo sapiens) (Q9H4B4 whole entry, looked up): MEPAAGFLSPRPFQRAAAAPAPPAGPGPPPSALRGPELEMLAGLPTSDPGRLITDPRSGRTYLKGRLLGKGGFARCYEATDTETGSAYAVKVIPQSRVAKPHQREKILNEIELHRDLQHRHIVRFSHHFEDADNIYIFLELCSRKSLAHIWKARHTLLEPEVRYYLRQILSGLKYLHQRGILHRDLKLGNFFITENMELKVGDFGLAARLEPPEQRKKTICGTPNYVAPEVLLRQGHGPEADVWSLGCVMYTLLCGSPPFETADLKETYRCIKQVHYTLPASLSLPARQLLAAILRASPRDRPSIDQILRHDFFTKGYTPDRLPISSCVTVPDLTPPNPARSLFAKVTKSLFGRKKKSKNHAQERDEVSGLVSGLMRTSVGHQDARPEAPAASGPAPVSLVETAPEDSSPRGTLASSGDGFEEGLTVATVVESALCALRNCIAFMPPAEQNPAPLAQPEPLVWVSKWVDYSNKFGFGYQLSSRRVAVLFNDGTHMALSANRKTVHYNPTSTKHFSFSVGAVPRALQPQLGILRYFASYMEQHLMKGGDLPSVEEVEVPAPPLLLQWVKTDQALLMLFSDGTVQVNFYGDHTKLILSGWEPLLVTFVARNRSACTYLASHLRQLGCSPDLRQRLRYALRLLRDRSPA
Sequence of Protein-tyrosine kinase 2-beta (Homo sapiens) (Q14289 whole entry, looked up): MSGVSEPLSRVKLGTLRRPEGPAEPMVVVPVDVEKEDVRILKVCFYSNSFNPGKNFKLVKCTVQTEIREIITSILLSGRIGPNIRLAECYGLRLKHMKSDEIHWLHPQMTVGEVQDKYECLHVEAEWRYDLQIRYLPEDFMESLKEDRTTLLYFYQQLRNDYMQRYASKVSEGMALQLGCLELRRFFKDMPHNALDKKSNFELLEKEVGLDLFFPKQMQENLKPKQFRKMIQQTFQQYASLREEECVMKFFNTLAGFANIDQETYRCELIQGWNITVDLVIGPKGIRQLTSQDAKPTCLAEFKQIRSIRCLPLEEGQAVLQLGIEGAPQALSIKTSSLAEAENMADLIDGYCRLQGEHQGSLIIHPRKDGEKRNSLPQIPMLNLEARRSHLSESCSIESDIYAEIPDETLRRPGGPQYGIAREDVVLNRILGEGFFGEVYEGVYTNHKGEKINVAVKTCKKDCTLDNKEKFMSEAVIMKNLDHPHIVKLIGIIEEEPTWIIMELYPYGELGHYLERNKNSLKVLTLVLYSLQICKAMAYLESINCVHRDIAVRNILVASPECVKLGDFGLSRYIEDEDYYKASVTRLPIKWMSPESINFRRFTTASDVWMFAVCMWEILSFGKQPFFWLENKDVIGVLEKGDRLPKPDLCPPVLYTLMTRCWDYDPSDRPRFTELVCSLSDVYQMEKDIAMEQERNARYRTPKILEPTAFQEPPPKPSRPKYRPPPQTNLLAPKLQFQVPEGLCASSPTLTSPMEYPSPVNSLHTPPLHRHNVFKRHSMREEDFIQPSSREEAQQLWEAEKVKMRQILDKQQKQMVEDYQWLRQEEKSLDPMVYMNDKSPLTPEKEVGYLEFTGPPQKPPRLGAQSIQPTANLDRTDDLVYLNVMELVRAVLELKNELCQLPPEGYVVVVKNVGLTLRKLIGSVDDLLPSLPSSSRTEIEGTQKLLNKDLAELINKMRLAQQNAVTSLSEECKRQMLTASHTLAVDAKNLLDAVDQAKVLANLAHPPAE

## C[C@@H]1CCc2ncc(F)cc2[C@H]2CCCN2c2ccn3ncc(c3n2)C(=O)N1 [SELITRECTINIB]
[1]
  IC50: 29 nM
[2]
  inhibition: inactive
[3]
  inhibition: inactive
[4]
  inhibition: inactive
[5]
  inhibition: inactive
[6]
  inhibition: inactive
[7]
  inhibition: inactive
[8]
  inhibition: inactive
[9]
  inhibition: inactive
[10]
  inhibition: inactive
[11]
  inhibition: inactive
[12]
  inhibition: inactive
[13]
  inhibition: inactive
[14]
  inhibition: inactive
[15]
  Cmax: 415 ng/mL
[16]
  AUC at 360 h: 2620 ng·h/mL
[17]
  residual activity: 92.5%
[18]
  residual activity: 110%
[19]
  residual activity: 95%
[20]
  residual activity: 93.5%
[21]
  residual activity: 104%
[22]
  residual activity: 89%
[23]
  residual activity: 124%
[24]
  residual activity: 120%
[25]
  residual activity: 96.5%
[26]
  residual activity: 85.5%
[27]
  residual activity: 106%
[28]
  residual activity: 102%
[29]
  residual activity: 110%
[30]
  residual activity: 110%
[31]
  residual activity: 84.5%
